The values that follow come from PMC9821906, “Synthesis of New Triazole-Based Thiosemicarbazone Derivatives as Anti-Alzheimer’s Disease Candidates: Evidence-Based In Vitro Study” (Molecules, 2022).

Structures are written as SMILES.

In experiment [1] the target is butyrylcholinesterase (BuChE) (Homo sapiens, UniProt P06276). Type of experiment: biochemical. The procedure:
(§1) Based on previously described methods, in vitro study of AChE inhibitory profile was calculated. In order to make a stock solution, compounds being analyzed were dissolved in DMSO (1 mg/mL). In addition, the working solutions were also prepared by using serial dilution (1–100 μg/mL). The solution of AChE enzyme (20 μL; 0.1 U/mL), analogues being tested with different concentration and buffer of sodium phosphate (150 μL; pH 8.0; 0.1 M) were preincubated appropriately at 25 °C. The process was initiated as DTNB (10 mM; 10 μL) and […] (14 mM; 10 μL) were accumulated. The resulting residue was mixed (by using cyclomixer) and put on incubation for 10 min at 25 °C. Instead of compounds being tested using 10 μL DMSO, the absorbance against blank reading was calculated with a microplate reader at 410 nm.
(§2) By plotting a nonlinear graph between inhibition and concentration, IC50 was calculated using GraphPad Prism 5.3.
In order to explore the inhibition profile of in vitro BuChE enzyme, a similar procedure was adopted. For measurement of BuChE activity, the solution containing BuChE enzyme was used.

For experiment [2], the target named is acetylcholinesterase (AChE) (Homo sapiens, UniProt P22303). Type of experiment: biochemical. The method, then:
as §1, §2

Chain of acetylcholinesterase (AChE) (P22303 32-614, species assumed): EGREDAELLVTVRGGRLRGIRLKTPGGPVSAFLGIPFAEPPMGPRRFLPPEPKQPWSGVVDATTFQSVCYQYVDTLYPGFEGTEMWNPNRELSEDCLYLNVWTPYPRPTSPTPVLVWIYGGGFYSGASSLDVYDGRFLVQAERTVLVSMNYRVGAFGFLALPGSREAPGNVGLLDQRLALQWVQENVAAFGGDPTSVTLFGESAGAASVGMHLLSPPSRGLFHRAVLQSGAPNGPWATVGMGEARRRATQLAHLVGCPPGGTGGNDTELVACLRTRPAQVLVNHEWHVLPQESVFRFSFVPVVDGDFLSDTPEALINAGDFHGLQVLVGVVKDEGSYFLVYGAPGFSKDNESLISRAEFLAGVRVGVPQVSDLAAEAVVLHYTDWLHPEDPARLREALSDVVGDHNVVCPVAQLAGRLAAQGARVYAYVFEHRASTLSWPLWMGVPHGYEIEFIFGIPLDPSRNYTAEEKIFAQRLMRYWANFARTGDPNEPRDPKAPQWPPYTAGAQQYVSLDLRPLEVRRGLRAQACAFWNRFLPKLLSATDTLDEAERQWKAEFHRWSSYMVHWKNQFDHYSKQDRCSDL
Chain of butyrylcholinesterase (BuChE) (P06276 29-602): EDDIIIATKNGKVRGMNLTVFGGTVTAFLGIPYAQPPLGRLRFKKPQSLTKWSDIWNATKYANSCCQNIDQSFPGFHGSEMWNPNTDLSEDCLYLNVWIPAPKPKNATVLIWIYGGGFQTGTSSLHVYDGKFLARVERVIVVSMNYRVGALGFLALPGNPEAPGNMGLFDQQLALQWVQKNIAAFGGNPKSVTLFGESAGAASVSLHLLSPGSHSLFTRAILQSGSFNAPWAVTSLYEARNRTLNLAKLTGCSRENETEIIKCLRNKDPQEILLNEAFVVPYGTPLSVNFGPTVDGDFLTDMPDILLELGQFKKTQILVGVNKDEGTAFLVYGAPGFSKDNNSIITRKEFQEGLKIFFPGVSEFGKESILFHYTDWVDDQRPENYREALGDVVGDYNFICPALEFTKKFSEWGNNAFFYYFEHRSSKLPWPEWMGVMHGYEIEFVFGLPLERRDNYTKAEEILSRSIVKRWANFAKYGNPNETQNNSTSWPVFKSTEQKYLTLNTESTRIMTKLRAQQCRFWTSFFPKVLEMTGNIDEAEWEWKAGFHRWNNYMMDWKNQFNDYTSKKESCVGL

`COc1ccc(OC)c(/C(CSc2nnc(-c3ccc([N+](=O)[O-])cc3)[nH]2)=N\NC(=S)Nc2ccc([N+](=O)[O-])cc2)c1` [6g, (.E)-2-(1-(2,5-dimethoxyphenyl)-2-((5-(4-nitrophenyl)-4H-1,2,4-triazol-3-yl)thio)ethylidene)-N-(4-nitrophenyl)hydrazine-1-carbothioamide]: in experiment [1], inhibition was half-maximal at 4.3 ± 0.1 µM (IC50). Besides, in experiment [2], the IC50 is 2.1 ± 0.1 µM and the “Selectivity Index” value came out at 2.04.
For the compound `Cc1ccc(-c2ccc(NC(=S)N/N=C(/CSc3nnc(-c4ccc([N+](=O)[O-])cc4)[nH]3)c3ccc(-c4ccccc4)cc3)cc2)cc1` [6d, (.E)-2-(1-([1,1′-biphenyl]-4-yl)-2-((5-(4-nitrophenyl)-4H-1,2,4-triazol-3-yl)thio)ethylidene)-N-(4′-methyl-[1,1′-biphenyl]-4-yl)hydrazine-1-carbothioamide], the “BuChE IC50” value in experiment [1] is “completely inactive”. In experiment [2], the “AChE IC50” value was “completely inactive”.
`Cc1ccc(-c2ccc(NC(=S)N/N=C(/CSc3nnc(-c4ccc([N+](=O)[O-])cc4)[nH]3)c3ccc(Cl)c(Cl)c3)cc2)cc1` [6p, (.E)-2-(1-(3,4-dichlorophenyl)-2-((5-(4-nitrophenyl)-4H-1,2,4-triazol-3-yl)thio)ethylidene)-N-(4′-methyl-[1,1′-biphenyl]-4-yl)hydrazine-1-carbothioamide] had an IC50 in experiment [1] of 4.6 ± 0.1 µM. Also, in experiment [2], the IC50 amounted to 3.2 ± 0.1 µM and the “Selectivity Index” value worked out at 1.44.
Compound `O=[N+]([O-])c1ccc(-c2nnc(SC/C(=N/NC(=S)Nc3cc(Cl)c(Cl)cc3[N+](=O)[O-])c3ccccc3Br)[nH]2)cc1` [6a, (.E)-2-(1-(2-bromophenyl)-2-((5-(4-nitrophenyl)-4H-1,2,4-triazol-3-yl)thio)ethylidene)-N-(4,5-dichloro-2-nitrophenyl)hydrazine-1-carbothioamide] came in with an IC50 in experiment [1] of 3.9 ± 0.1 µM. Further, in experiment [2], the IC50 is 2.2 ± 0.1 µM and the “Selectivity Index” value was found to be 1.77.
Turning to `Cc1ccc(NC(=S)N/N=C(/CSc2nnc(-c3ccc([N+](=O)[O-])cc3)[nH]2)c2ccc(Cl)c(Cl)c2)c([N+](=O)[O-])c1` [6m, (.E)-2-(1-(3,4-dichlorophenyl)-2-((5-(4-nitrophenyl)-4H-1,2,4-triazol-3-yl)thio)ethylidene)-N-(4-methyl-2-nitrophenyl)hydrazine-1-carbothioamide], it took 3.8 ± 0.1 µM to reach half-maximal inhibition in experiment [1] (IC50). Also, in experiment [2], the midpoint of inhibition, the IC50, lay at 2.7 ± 0.1 µM and the “Selectivity Index” value is reported as 1.41.
The corresponding values for `CN(C)c1cc(Cl)c(NC(=S)N/N=C(/CSc2nnc(-c3ccc([N+](=O)[O-])cc3)[nH]2)c2ccc(-c3ccccc3)cc2)cc1Cl` [6j, (.E)-2-(1-([1,1′-biphenyl]-4-yl)-2-((5-(4-nitrophenyl)-4H-1,2,4-triazol-3-yl)thio)ethylidene)-N-(2,5-dichloro-4-(dimethylamino)phenyl)hydrazine-1-carbothioamide] are 12.3 ± 0.3 µM, 11.3 ± 0.3 µM and 1.09.
As to `Cc1ccc(/C(CSc2nnc(-c3ccc([N+](=O)[O-])cc3)[nH]2)=N\NC(=S)Nc2cc(Cl)c(Cl)cc2[N+](=O)[O-])c([N+](=O)[O-])c1` [6l, (.E)-N-(4,5-dichloro-2-nitrophenyl)-2-(1-(4-methyl-2-nitrophenyl)-2-((5-(4-nitrophenyl)-4H-1,2,4-triazol-3-yl)thio)ethylidene)hydrazine-1-carbothioamide], the IC50 came to 5.9 ± 0.1 µM in experiment [1] and 4.6 ± 0.01 µM in experiment [2]. Besides, in experiment [2], the “Selectivity Index” value came to 1.28.
For `COc1cccc(/C(CSc2nnc(-c3ccc([N+](=O)[O-])cc3)[nH]2)=N\NC(=S)Nc2ccc([N+](=O)[O-])cc2)c1` [6u, (.E)-2-(1-(3-methoxyphenyl)-2-((5-(4-nitrophenyl)-4H-1,2,4-triazol-3-yl)thio)ethylidene)-N-(4-nitrophenyl)hydrazine-1-carbothioamide], in that order: 3.7 ± 0.1 µM, 2.9 ± 0.1 µM and 1.28.
As to `O=[N+]([O-])c1ccc(NC(=S)N/N=C(/CSc2nnc(-c3ccc([N+](=O)[O-])cc3)[nH]2)c2ccccc2[N+](=O)[O-])cc1` [6s, (.E)-N-(4-nitrophenyl)-2-(1-(2-nitrophenyl)-2-((5-(4-nitrophenyl)-4H-1,2,4-triazol-3-yl)thio)ethylidene)hydrazine-1-carbothioamide], the IC50 in experiment [1] was found to be 2.3 ± 0.1 µM; in experiment [2] it was 1.4 ± 0.05 µM. Also, the “Selectivity Index” value in experiment [2] is recorded as 1.64.
In experiment [1], `O=[N+]([O-])c1ccc(-c2nnc(SC/C(=N/NC(=S)Nc3ccccc3)c3ccc(Cl)c(Cl)c3)[nH]2)cc1` [6o, (.E)-2-(1-(3,4-dichlorophenyl)-2-((5-(4-nitrophenyl)-4H-1,2,4-triazol-3-yl)thio)ethylidene)-N-phenylhydrazine-1-carbothioamide] had an IC50 of 3.1 ± 0.4 µM. Also, in experiment [2], the IC50 stood at 2.5 ± 0.3 µM and the “Selectivity Index” value is 1.24.
On to `Cc1ccc(NC(=S)N/N=C(/CSc2nnc(-c3ccc([N+](=O)[O-])cc3)[nH]2)c2ccccc2[N+](=O)[O-])c([N+](=O)[O-])c1` [6r, (.E)-N-(4-methyl-2-nitrophenyl)-2-(1-(2-nitrophenyl)-2-((5-(4-nitrophenyl)-4H-1,2,4-triazol-3-yl)thio)ethylidene)hydrazine-1-carbothioamide], for which, in experiment [1], the IC50 was found to be 2.2 ± 0.1 µM. For the same compound, in experiment [2], the IC50 turned out to be 1.3 ± 0.05 µM and the “Selectivity Index” value was determined as 1.69.
Consider `O=[N+]([O-])c1ccc(NC(=S)N/N=C(/CSc2nnc(-c3ccc([N+](=O)[O-])cc3)[nH]2)c2ccc(Cl)c(Cl)c2)cc1` [6n, (.E)-2-(1-(3,4-dichlorophenyl)-2-((5-(4-nitrophenyl)-4H-1,2,4-triazol-3-yl)thio)ethylidene)-N-(4-nitrophenyl)hydrazine-1-carbothioamide], for which the IC50 in experiment [1] stood at 1.7 ± 0.05 µM; in experiment [2], 0.7 ± 0.05 µM. Moreover, the “Selectivity Index” value in experiment [2] was 2.43.
With `O=[N+]([O-])c1ccc(-c2nnc(SC/C(=N/NC(=S)Nc3ccccc3)c3ccc(-c4ccccc4)cc3)[nH]2)cc1` [6c, (.E)-2-(1-([1,1′-biphenyl]-4-yl)-2-((5-(4-nitrophenyl)-4H-1,2,4-triazol-3-yl)thio)ethylidene)-N-phenylhydrazine-1-carbothioamide], the “BuChE IC50” value in experiment [1] was “completely inactive”. Moreover, the “AChE IC50” value in experiment [2] is “completely inactive”.
The compound `COc1cccc(/C(CSc2nnc(-c3ccc([N+](=O)[O-])cc3)[nH]2)=N\NC(=S)Nc2ccc(C)cc2[N+](=O)[O-])c1` [6t, (.E)-2-(1-(3-methoxyphenyl)-2-((5-(4-nitrophenyl)-4H-1,2,4-triazol-3-yl)thio)ethylidene)-N-(4-methyl-2-nitrophenyl)hydrazine-1-carbothioamide] gave an IC50 in experiment [1] of 2.5 ± 0.1 µM. Besides, in experiment [2], it took 1.9 ± 0.1 µM to reach half-maximal inhibition (IC50) and the “Selectivity Index” value stood at 1.32.
Take `Cc1ccc(-c2ccc(NC(=S)N/N=C(/CSc3nnc(-c4ccc([N+](=O)[O-])cc4)[nH]3)c3ccc(Br)cc3)cc2)cc1` [6k, (.E)-2-(1-(4-bromophenyl)-2-((5-(4-nitrophenyl)-4H-1,2,4-triazol-3-yl)thio)ethylidene)-N-(4′-methyl-[1,1′-biphenyl]-4-yl)hydrazine-1-carbothioamide]: the IC50 was 14.1 ± 0.4 µM in experiment [1] and 12.2 ± 0.3 µM in experiment [2]. Also, the “Selectivity Index” value in experiment [2] turned out to be 1.15.
On to `O=[N+]([O-])c1ccc(-c2nnc(SC/C(=N/NC(=S)Nc3cccc([N+](=O)[O-])c3)c3ccc(-c4ccccc4)cc3)[nH]2)cc1` [6e, (.E)-2-(1-([1,1′-biphenyl]-4-yl)-2-((5-(4-nitrophenyl)-4H-1,2,4-triazol-3-yl)thio)ethylidene)-N-(3-nitrophenyl)hydrazine-1-carbothioamide], for which the results for the IC50 in experiment [1] and in experiment [2] were 6.3 ± 0.1 µM and 4.7 ± 0.1 µM, respectively. Also, the “Selectivity Index” value in experiment [2] amounted to 1.34.
As to `Cc1ccc(NC(=S)N/N=C(/CSc2nnc(-c3ccc([N+](=O)[O-])cc3)[nH]2)c2ccc(Br)cc2)c([N+](=O)[O-])c1` [6h, (.E)-2-(1-(4-bromophenyl)-2-((5-(4-nitrophenyl)-4H-1,2,4-triazol-3-yl)thio)ethylidene)-N-(4-methyl-2-nitrophenyl)hydrazine-1-carbothioamide], in experiment [1], the IC50 came to 11.2 ± 0.3 µM. In experiment [2], the IC50 was 9.1 ± 0.2 µM and the “Selectivity Index” value came out at 1.23.
Turning to `COc1ccc(OC)c(/C(CSc2nnc(-c3ccc([N+](=O)[O-])cc3)[nH]2)=N\NC(=S)Nc2ccc(C)cc2[N+](=O)[O-])c1` [6f, (.E)-2-(1-(2,5-dimethoxyphenyl)-2-((5-(4-nitrophenyl)-4H-1,2,4-triazol-3-yl)thio)ethylidene)-N-(4-methyl-2-nitrophenyl)hydrazine-1-carbothioamide], the IC50 in experiment [1] was 4.7 ± 0.1 µM; in experiment [2], 2.4 ± 0.1 µM. Further, the “Selectivity Index” value in experiment [2] was 1.96.
